From patent US7332615B2, “Hydrophilic analogs of 4,8-dihydrobenzodithiophene-4,8-diones as anticancer agents” (Industrial Technology Research Institute, priority 2004, dated 2008)
Structures can show the parent of a compound that is named as a salt. Where two headings read alike, the source gives them in different places.

Columns and labels:
NCI-H460 = assay: Cytotoxicity Assays Method A (alamarBlue anti-proliferative assay), NCI-H460; type: cell-based
Description: (§1) Cytotoxicity Assays Method A (HUVEC, MCF-7, HT-29, Hep 3B and NCl-H460) [S. A. Ahmed, R. M. Gogal Jr., and J. E. Walsh, Journal of Immunological Methods 170: 211-224, (1994): M. R. Boyd, Status of the NCl preclinical antitumor drug discovery screen. (Published by J. B. Lippincoft Company, Philadelphia, Pa. 19105, USA) Principles & Practices of Oncology Updates 3 # 10: 1-12, (1989); M. R. Boyd, et al. Data display and analysis strategies for the NCl disease-oriented in vitro antitumor drug screen. In: Cytotoxic anti-cancer drugs: models and concepts for drug discovery and development. Boston: Kluwer Academic, Pages; 11-34, (1992)]
(§2) The test compounds were dissolved in 100% DMSO and then diluted with sterile distilled water to obtain initial working solutions of 20000, 2000, 200, 20 and 2 μM in 80% DMSO. A 200 fold dilution was further made in culture media to generate final assay concentrations of 100, 10, 1, 0.1 and 0.01 μM in 0.4% DMSO.
(§3) Aliquots of 100 μl of cell suspension (about 1.5-3.0×10^3/well) were placed in 96-well microtiter plates in an atmosphere of 5% CO2 at 37° C. After 24 hours, 100 μl of growth medium and 1 μl of test solution or vehicle (80% DMSO) were added respectively per well in duplicate for an additional 72-hour incubation. Thus, the final concentration of DMSO was 0.4%. The test compounds, IIa-1, IIb-1 and VII-1 were evaluated at concentrations of 100, 10, 1, 0.1 and 0.01 μM. At the end of incubation, 20 μl of alamarBlue 90% reagent was added to each well for another 6-hour incubation before detection of cell viability by fluorescent intensity. Fluorescent intensity was measured using a Spectraflour Plus plate reader with excitation at 530 nm and emission at 590 nm.
(§4) The measured results was calculated by the following formula: PG(%)=100×(Mean Ftest−Mean Ftime0)/(Mean Fctrl−Mean Ftime0)] If(Mean Ftest−Mean Ftime0)<0, then PG(%)=100×(Mean Ftest−Mean Ftime0)/(Mean Ftime0−Mean Fblank) wherein PG represents percent growth;
(§5) A decrease of 50% or more (≧50%) in fluorescent intensity relative to the vehicle-treated control indicates significant cytostatic or cytotoxic activity, and semi-quantitative values for IC50, TGI and LC50 were then determined by nonlinear regression using GraphPad Prism (GraphPad Software, USA).
(§6) IC50 (50% Inhibition Concentration); Test compound concentration where the increase from times in the number or mass of treated cells was only 50% as much as the corresponding increase in the vehicle-control at the end of experiment.
(§7) TGI (Total Growth Inhibition): Test compound concentration where the number or mass of treated cells at the end of experiment was equal to that at time0.
(§8) LC50 (50% Lethal Concentration): Test compound concentration where the number or mass of treated cells at the end of experiment was half that at time.
(§9) The assays were used to detect changes in cell proliferation based on the ability of viable cells to cause alamarBlue to change from its oxidized to a reduced form. With the results obtained from the alamarBlue reaction, cell proliferation can be quantified and metabolic activity of viable cell can be examined.
(§10) The succinate derivatives of compounds IIa-1, IIb-1 and VII-1 were tested for possible effect on the proliferation of four human tumor cell lines ˜MCF-7 (breast), HT-29 (colon), Hep3B (liver), and NCl—H 460 (lung) as well as one human umbilical vein endothelial cell (HUVEC) at assay concentration from 0.01 to 100 μM, through serial 10-fold dilution.

[1] = test system: p-gp-expressing epidermoid carcinoma of the nasopharynx (KB-VIN); assay: Cytotoxicity Assays Method C, KB-VIN; type: cell-based; settings: for IC50: 50% reduction in cell number after 72 hr of incubation; for activity against the MDR cell line KB-VIN (in words): summary of Table 3
Description: Cytotoxicity Assays Method C (KB, KB-VIN, AS49, HCT-8, PC-3) [K. H. Lee et. al. Planta Med. 54, 308-312 (1998), Monk A et. al. J. Natl. Cancer Inst. 83, 757-766 (1991).] The cell lines included epidermoid caninoma of the nasopharynx (KB), p-gp-expressing epidermoid caninoma of the nasopharynx (KB-VIN), lung carcinoma (A-549), ileocecal carinoma (HCT-8) and prostate cancer (PC-3) cell lines.

prostate cancer (PC-3) = assay: Cytotoxicity Assays Method C, PC-3; type: cell-based; settings: for IC50: read-out: IC50 PC-3; for activity against the androgen-insensitive prostate cancer cell line PC-3 (in words): PC-3, summary of Table 3
[2] = test system: epidermoid carcinoma of the nasopharynx (KB); assay: Cytotoxicity Assays Method C, KB; type: cell-based; settings: read-out: IC50 KB
[3] = test system: ileocecal carcinoma (HCT-8); assay: Cytotoxicity Assays Method C, HCT-8; type: cell-based; settings: Homo sapiens, HCT-8, 72 h, read-out: IC50 HCT-8
[4] = test system: Human promyeloid leukemia HL-60 cells; assay: Cytotoxicity Assays Method B (MTT proliferation assay), HL-60; type: cell-based; settings: for IC50: Homo sapiens, read-out: IC50 (concentration at which 50% of the cells are inhibited from growing)
Procedure: Cytotoxicity Assays Method B (HL-60) [H. M. Chen et al. Chin. Pharm. J. 53, 157-167 (2001)]
Human promyeloid leukemia HL-60 cells were obtained from the American Type
Culture Collection (Manassas, Va., USA) and the Culture Collection and Research Center(CCRC) (Tai wan, ROC). Human promyeloid leukemia HL-60 cells were cultured in suspension in RPMI-1640 medium (GIBCO, Grand Is land, USA), containing 10% fetal bovine se rum (GIBCO, Grand Is land, USA), 100 unit/mL penicillin, […] streptomycin and 1% L-glutamine at 37° C. in a humidified atmosphere of 5% CO2 in air. Cells were split every day to maintain the cell numbers between 2−5×10^5/mL. Cell numbers were assessed by the standard procedure of leukocyte counting using a hemocytometer and cell viability was checked by the ability of cells to exclude Trypan blue.
Cellular proliferation was determined by the MTT [3-(4,5-dimethylthiazol-2-yl)-2,5-diphenyltetrazolium bromide] as say. Briefly, […] of MTT (5 mg/mL) was added to each well of 96-well plates containing 1×10^5 cells after treatment with different concentrations of samples for 4 days. The reaction was stopped after 2 h by adding […] of 0.04 N HCl in isopropanol and the OD570 nm was determined by a minicolorimetric reader. Each concentration treatment was performed in triplicate.

MCF-7 = assay: Cytotoxicity Assays Method A (alamarBlue anti-proliferative assay), MCF-7; type: cell-based
Description: as §1, §2, §3, §4, §5, §6, §7, §8, §9, §10

HT-29 = assay: Cytotoxicity Assays Method A (alamarBlue anti-proliferative assay), HT-29; type: cell-based
Description: as §1, §2, §3, §4, §5, §6, §7, §8, §9, §10

Hep 3B = assay: Cytotoxicity Assays Method A (alamarBlue anti-proliferative assay), Hep 3B; type: cell-based
Description: as §1, §2, §3, §4, §5, §6, §7, §8, §9, §10

[5] = Cytotoxicity Assays Method A (alamarBlue anti-proliferative assay), HUVEC; type: cell-based; settings: human, HUVEC (human umbilical vein endothelial cells), 72-hour incubation, alamarBlue
Description: as §1, §2, §3, §4, §5, §6, §7, §8, §9, §10

HUVEC = assay: as above; type: cell-based
Description: as §1, §2, §3, §4, §5, §6, §7, §8, §9, §10

lung carcinoma (A-549) = assay: Cytotoxicity Assays Method C, A-549; type: cell-based; settings: read-out: IC50 A549
Water solubility = type: physicochemical; settings: water; in H2O
[6] = HCT-8, 50% reduction in cell number after 72 hr of incubation
[7] = 96 h, HL-60, MTT, treatment for 4 days

SMILES | IC50 ([1]; Homo sapiens, KBVIN, 72 h) [nM] | IC50 (prostate cancer (PC-3); 72 h) [nM] | IC50 ([2]; 72 h) [nM] | IC50 [3] [nM] | IC50 ([4]; HL-60, 96 h) [nM] | IC50 (lung carcinoma (A-549); Homo sapiens, A549, 72 h) [nM] | IC50 [1] [nM] | activity against the MDR cell line KB-VIN (in words) [1] | activity against the androgen-insensitive prostate cancer cell line PC-3 (in words) (prostate cancer (PC-3)) | IC50 [3, 6] [nM] | IC50 [4, 7] [nM] | also measured
O=C(O)CCC(=O)OCc1cc2c(s1)C(=O)c1sccc1C2=O [IIa-1, Mono-[1-(4,8-dioxo-4,8-dihydrobenzo[1,2-b:5,4-b′]dithiophen-2-yl)-methyl]succinate] | 4470 | 1350 | 2020 | 4030 | 470 | 4030 |  |  |  |  |  | IC50 (NCI-H460; Homo sapiens, NCI-H460, 72 h, read-out: IC50 (50% Inhibition Concentration)): 810 nM; CC50 (NCI-H460; Homo sapiens, NCI-H460, 72-hour incubation, alamarBlue, read-out: LC50 (50% Lethal Concentration)): 3500 nM; TGI (Total growth Inhibition) (NCI-H460; NCI-H460, 72-hour incubation, alamarBlue): 1700 nM; IC50 (MCF-7; Homo sapiens, MCF7, 72 h, read-out: IC50 (50% Inhibition Concentration)): 3400 nM; CC50 (MCF-7; Homo sapiens, MCF7, MCF-7, 72-hour incubation, alamarBlue, read-out: LC50 (50% Lethal Concentration)): 14000 nM; TGI (Total growth Inhibition) (MCF-7; MCF-7, 72-hour incubation, alamarBlue): 6900 nM; cytotoxicity against MCF-7 (in words) (MCF-7; MCF-7, summary of Table 1): significant activity; TGI (Total growth Inhibition) (HT-29; HT-29, 72-hour incubation, alamarBlue): 22000 nM; IC50 (HT-29; Homo sapiens, HT-29, 72 h, read-out: IC50 (50% Inhibition Concentration)): 11000 nM; LC50 (50% lethal concentration) (HT-29; Homo sapiens, HT-29, 72-hour incubation, alamarBlue): 45000 nM; cytotoxicity against Hep3B (in words) (Hep 3B; Hep3B, summary of Table 1): significant activity; TGI (Total growth Inhibition) (Hep 3B; Hep-3B, 72-hour incubation, alamarBlue): 5100 nM; IC50 (Hep 3B; Homo sapiens, Hep3B, 72 h, read-out: IC50 (50% Inhibition Concentration)): 2800 nM; CC50 (Hep 3B; Homo sapiens, Hep3B, Hep-3B, 72-hour incubation, alamarBlue, read-out: LC50 (50% Lethal Concentration)): 9200 nM; LC50 (50% lethal concentration) at 72 h [5]: 34000 nM; TGI (Total growth Inhibition) (HUVEC; 72-hour incubation, alamarBlue): 19000 nM; IC50 (HUVEC; Homo sapiens, 72 h, read-out: IC50 (50% Inhibition Concentration)): 10000 nM
CC(OC(=O)CCCC(=O)O)c1cc2c(s1)C(=O)c1sccc1C2=O (stereo not drawn) [IIb-2, Mono-[1-(4,8-dioxo-4,8-dihydrobenzo[1,2-b:5,4-b′]dithiophen-2-yl)-ethyl]pentanedioate] |  | 60 | 30 | 190 | 250 | 110 | 50 | potent activity | potent activity |  |  | 
CC(OCC(=O)O)c1cc2c(s1)C(=O)c1ccsc1C2=O (stereo not drawn) [IX, 1-(4,8-Dioxo-4,8-dihydroxybenzo[1,2-b:4,5-b′]-dithiophen-2-yl-ethoxy)-acetic acid] |  |  |  |  |  |  | 18200 |  |  | 240 | 2580 | IC50 (prostate cancer (PC-3); PC-3, 50% reduction in cell number after 72 hr of incubation): 2510 nM; IC50 ([2]; KB, 50% reduction in cell number after 72 hr of incubation): 19800 nM; IC50 (lung carcinoma (A-549); A549, 50% reduction in cell number after 72 hr of incubation): 2600 nM
CC(OC(=O)CCCC(=O)O)c1cc2c(s1)C(=O)c1ccsc1C2=O (stereo not drawn) [VII-2, Mono-[1-(4,8-dioxo-4,8-dihydroxybenzo[1,2-b;4,5-b′]dithiophen-2-yl)-ethyl]pentanedioate] |  | 60 | 80 | 480 |  | 510 | 240 | potent activity | potent activity |  | 280 | 
CN(C)CCNC(=O)c1cc2c(s1)C(=O)c1ccsc1C2=O [XV-2-H3PO4, 4,8-dioxo-4,8-dihydrobenzo[1,2-b;4,5-b′]dithiophene-2-carboxylate-(2-dimethyl-aminoethyl)-amide phosphoric acid salt] | 10 |  |  |  |  |  |  |  |  | 10 | 50 | IC50 (prostate cancer (PC-3); 72 h, PC-3, 50% reduction in cell number after 72 hr of incubation): 10 nM; IC50 ([2]; 72 h, KB, 50% reduction in cell number after 72 hr of incubation): 60 nM; cytotoxicity against HL-60 (in words) ([4]; HL-60, summary of Table 2): the most potent one; solubility (Water solubility): ≥ 4000 µg/mL; IC50 (lung carcinoma (A-549); Homo sapiens, A549, 72 h, A549, 50% reduction in cell number after 72 hr of incubation): 10 nM
C[C@H](NC(=O)c1cc2c(s1)C(=O)c1ccsc1C2=O)C(=O)O [XVI, (L)-2-{(4,8-Dioxo-4,8-dihydrobenzo-[1,2-b;4,5-b′]dithiophene-2-carbonyl)-amino}-propionic acid] |  |  |  |  |  |  |  |  |  |  | 750 | 
